Measurements reported in ChEMBL document CHEMBL4321804, “Myrmenaphthol A, Isolated from a Hawaiian Sponge of the Genus Myrmekioderma” (J Nat Prod, 2019).
In brackets after ≈: the same amount, converted by molar mass. Activity calls are given as the source filed them. The calls are words filed in the database; no cut-off is given here.

What was measured:
[1] = test system: HeLa; assay: Cytotoxicity against human HeLa cells incubated for 72 hrs by MTT assay; format: functional, cell-based
[2] = test system: P388; assay: Cytotoxicity against mouse P388 cells incubated for 72 hrs by MTT assay; format: functional, cell-based; conditions: P388, 72 h
[3] = target: T1, Estrogen receptor (Homo sapiens, UniProt P03372); assay: Displacement of [3H]-estradiol from human recombinant estrogen receptor expressed in insect cells incubated for 17 hrs by radioactive receptor binding assay
T1 sequence (P03372 whole entry): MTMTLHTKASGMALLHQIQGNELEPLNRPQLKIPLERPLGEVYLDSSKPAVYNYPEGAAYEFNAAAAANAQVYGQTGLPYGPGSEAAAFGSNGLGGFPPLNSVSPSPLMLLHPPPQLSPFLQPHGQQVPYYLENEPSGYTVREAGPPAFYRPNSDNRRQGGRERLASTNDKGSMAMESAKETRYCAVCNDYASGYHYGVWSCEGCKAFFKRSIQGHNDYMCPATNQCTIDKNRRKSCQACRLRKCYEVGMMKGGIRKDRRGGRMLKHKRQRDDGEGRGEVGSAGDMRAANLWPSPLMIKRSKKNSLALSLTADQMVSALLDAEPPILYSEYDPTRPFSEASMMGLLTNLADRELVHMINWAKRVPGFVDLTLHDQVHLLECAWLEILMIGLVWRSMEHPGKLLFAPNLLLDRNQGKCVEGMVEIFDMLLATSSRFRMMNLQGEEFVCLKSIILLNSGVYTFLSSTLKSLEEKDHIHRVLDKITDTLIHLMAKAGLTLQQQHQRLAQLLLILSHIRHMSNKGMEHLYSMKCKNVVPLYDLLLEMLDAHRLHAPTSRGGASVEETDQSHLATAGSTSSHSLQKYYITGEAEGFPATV

[4] = target: T2, Estrogen receptor (Homo sapiens) (UniProt P03372); assay: Antagonist activity at 17-beta-estradiol-stimulated GST-tagged ER-alpha ligand binding domain (unknown origin) assessed as fluorescein PGC1a coactivator peptide recruitment incubated up to 24 hrs by LanthaScreen TR-FRET co-regulator assay
T2 sequence (whole entry): T1 sequence (P03372 whole entry)

[5] = target: T2, Estrogen receptor (Homo sapiens); assay: Agonist activity at GST-tagged ER-alpha ligand binding domain (unknown origin) assessed as fluorescein PGC1a coactivator peptide recruitment incubated up to 24 hrs by LanthaScreen TR-FRET co-regulator assay
[6] = target: T2, Estrogen receptor (Homo sapiens); assay: Inhibition of 17-beta-estradiol-stimulated human ER alpha-binding domain at 100 uM by LanthaScreen TR-FRET coregulator assay

IC50 [3]	inhibition [4]	Activity [5]	inhibition [6]	Compound	IC50 [1]	IC50 [2]
10 nM	inactive	inactive	30%	C[C@@H]1C[C@@]12c1ccc3c(ccc4ccc(O)cc43)c1C[C@@H]2O	0.4 µg/mL (≈ 1.38 µM)	4.5 µg/mL (≈ 15.5 µM)
	inactive	inactive	30%	C/C=C1/C(=O)C(O)=C2c3ccc4ccc(O)cc4c3CC[C@@]21C		
